Columns and labels:
Format in all cases: in vivo
[1] = test system: rice (Oryra sativa); experiment: Test B flooded paddy test; details: Oryza sativa, Flood, 250 g ai/ha; scale of 0 to 100 where 0 is no effect and 100 is complete control; read-out: Rice plant response rating
Method in brief: (§1)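 Response scored visually against untreated controls, 0 = no effect and 100 = complete control, 13–15 d after treatment in the greenhouse. Compounds added to paddy water held 3 cm above soil surface. Treatment given at 2-leaf stage.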

[2] = test system: barnyardgrass (Echinochloa crus-galli); experiment: Test B flooded paddy test; details: Echinochloa crus-galli, Flood, 250 g ai/ha; scale of 0 to 100 where 0 is no effect and 100 is complete control; read-out: Barnyardgrass plant response rating
Method in brief: as §1

[3] = test system: ducksalad (Heteranthera limosa); experiment: Test B flooded paddy test; details: Heteranthera limosa, Flood, 250 g ai/ha; scale of 0 to 100 where 0 is no effect and 100 is complete control; read-out: Ducksalad plant response rating
Method in brief: as §1

[4] = test system: sedge, umbrella (small-flower umbrella sedge, Cyperus difformis); experiment: Test B flooded paddy test; details: Cyperus difformis, Flood, 250 g ai/ha; scale of 0 to 100 where 0 is no effect and 100 is complete control; read-out: Sedge, Umbrella plant response rating
Method in brief: as §1

[5] = test system: ryegrass, Italian (Italian ryegrass, Lolium multiflorum); experiment: Test A preemergence; details: Lolium multiflorum, pre-emergence, 240 h
Method in brief: (§2)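 Each rating is a visual injury score from 0 to 100 given about 10 d after treatment, judged against untreated controls kept alongside in the greenhouse. In loam soil–sand blend, seeds got a preemergence directed soil spray, while postemergence plants were 2 to 10 cm tall at spraying.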

[6] = test system: barnyardgrass (Echinochloa crus-galli); experiment: Test A preemergence; details: Echinochloa crus-galli, pre-emergence, 240 h
Method in brief: as §2

[7] = test system: pigweed (Amaranthus retroflexus); experiment: Test A preemergence; details: Amaranthus retroflexus, pre-emergence, 240 h
[8] = test system: giant foxtail (Setaria faberii); experiment: Test A preemergence; details: Setaria faberi, pre-emergence, 240 h
Method in brief: as §2

[9] = test system: ragweed (common ragweed, Ambrosia elatior); experiment: Test A preemergence; details: Ambrosia artemisiifolia, pre-emergence, 240 h
Method in brief: as §2

[10] = test system: Kochia (Kochia scoparia); experiment: Test A preemergence; details: Bassia scoparia, pre-emergence, 240 h
Method in brief: as §2

[11] = test system: ryegrass, Italian (Italian ryegrass, Lolium multiflorum); experiment: Test A postemergence; details: Lolium multiflorum, post-emergence, 240 h, 125 g ai/ha, Postemergence; visual injury after approximately 10 d; 0 to 100 scale where 0 is no effect and 100 is complete control; read-out: Plant response rating, Ryegrass, Italian
Method in brief: as §2

[12] = test system: blackgrass (Alopecurus myosuroides); experiment: Test A postemergence; details: Alopecurus myosuroides, post-emergence, 240 h, 125 g ai/ha, Postemergence; visual injury after approximately 10 d; 0 to 100 scale where 0 is no effect and 100 is complete control; read-out: Plant response rating, Blackgrass
Method in brief: as §2

[13] = test system: wheat (Triticum aestivum); experiment: Test A postemergence; details: Triticum aestivum, post-emergence, 240 h, 125 g ai/ha, Postemergence; visual injury after approximately 10 d; 0 to 100 scale where 0 is no effect and 100 is complete control; read-out: Plant response rating, Wheat
Method in brief: as §2

[14] = test system: barnyardgrass (Echinochloa crus-galli); experiment: Test A postemergence; details: Echinochloa crus-galli, post-emergence, 240 h, 125 g ai/ha, Postemergence; visual injury after approximately 10 d; 0 to 100 scale where 0 is no effect and 100 is complete control; read-out: Plant response rating, Barnyardgrass
Method in brief: as §2

[15] = test system: pigweed (Amaranthus retroflexus); experiment: Test A postemergence; details: Amaranthus retroflexus, post-emergence, 240 h, 125 g ai/ha, Postemergence; visual injury after approximately 10 d; 0 to 100 scale where 0 is no effect and 100 is complete control; read-out: Plant response rating, Pigweed
Method in brief: as §2

[16] = test system: giant foxtail (Setaria faberii); experiment: Test A postemergence; details: Setaria faberi, post-emergence, 240 h, 125 g ai/ha, Postemergence; visual injury after approximately 10 d; 0 to 100 scale where 0 is no effect and 100 is complete control; read-out: Plant response rating, Foxtail, Giant
Method in brief: as §2

[17] = test system: Galium (catchweed bedstraw, Galium aparine); experiment: Test A postemergence; details: Galium, post-emergence, 240 h, 125 g ai/ha, Postemergence; visual injury after approximately 10 d; 0 to 100 scale where 0 is no effect and 100 is complete control; read-out: Plant response rating, Galium
Method in brief: as §2

[18] = test system: ragweed (common ragweed, Ambrosia elatior); experiment: Test A postemergence; details: Ambrosia artemisiifolia, post-emergence, 240 h, 125 g ai/ha, Postemergence; visual injury after approximately 10 d; 0 to 100 scale where 0 is no effect and 100 is complete control; read-out: Plant response rating, Ragweed
Method in brief: as §2

[19] = test system: corn (Zea mays); experiment: Test A postemergence; details: Zea mays, post-emergence, 240 h, 125 g ai/ha, Postemergence; visual injury after approximately 10 d; 0 to 100 scale where 0 is no effect and 100 is complete control
Method in brief: as §2

[20] = test system: Kochia (Kochia scoparia); experiment: Test A postemergence; details: Bassia scoparia, post-emergence, 240 h, 125 g ai/ha, Postemergence; visual injury after approximately 10 d; 0 to 100 scale where 0 is no effect and 100 is complete control; read-out: Plant response rating, Kochia
Method in brief: as §2

CC(C)Oc1ccc([C@H]2CN(C)C(=O)[C@@H]2C(=O)Nc2cccc(F)c2F)cc1 [Compound 953]
pest or weed control at 250 g/ha [1]: 0% | pest or weed control at 250 g/ha [2]: 20% | pest or weed control at 250 g/ha [3]: 40% | pest or weed control at 250 g/ha [4]: 0% | pest or weed control at 125 g/ha ([5]; 125 g ai/ha, Preemergence, visual injury rating after approximately 10 d, read-out: Ryegrass, Italian plant response rating (0 to 100 scale, 0 is no effect, 100 is complete control)): 0% | pest or weed control at 500 g/ha ([5]; 500 g ai/ha, preemergence, visual injury rating about 10 d after treatment, 0 to 100 scale (0 no effect, 100 complete control), read-out: Ryegrass, Italian plant response rating): 60% | pest or weed control at 125 g/ha ([6]; 125 g ai/ha, Preemergence, visual injury rating after approximately 10 d, read-out: Barnyardgrass plant response rating (0 to 100 scale, 0 is no effect, 100 is complete control)): 90% | pest or weed control at 500 g/ha ([6]; 500 g ai/ha, preemergence, visual injury rating about 10 d after treatment, 0 to 100 scale (0 no effect, 100 complete control), read-out: Barnyardgrass plant response rating): 90% | pest or weed control at 125 g/ha ([7]; 125 g ai/ha, Preemergence, visual injury rating after approximately 10 d, read-out: Pigweed plant response rating (0 to 100 scale, 0 is no effect, 100 is complete control)): 0% | pest or weed control at 500 g/ha ([7]; 500 g ai/ha, preemergence, visual injury rating about 10 d after treatment, 0 to 100 scale (0 no effect, 100 complete control), read-out: Pigweed plant response rating): 0% | pest or weed control at 125 g/ha ([8]; 125 g ai/ha, Preemergence, visual injury rating after approximately 10 d, read-out: Foxtail, Giant plant response rating (0 to 100 scale, 0 is no effect, 100 is complete control)): 90% | pest or weed control at 500 g/ha ([8]; 500 g ai/ha, preemergence, visual injury rating about 10 d after treatment, 0 to 100 scale (0 no effect, 100 complete control), read-out: Foxtail, Giant plant response rating): 100% | pest or weed control at 125 g/ha ([9]; 125 g ai/ha, Preemergence, visual injury rating after approximately 10 d, read-out: Ragweed plant response rating (0 to 100 scale, 0 is no effect, 100 is complete control)): 0% | pest or weed control at 500 g/ha ([9]; 500 g ai/ha, preemergence, visual injury rating about 10 d after treatment, 0 to 100 scale (0 no effect, 100 complete control), read-out: Ragweed plant response rating): 0% | pest or weed control at 125 g/ha ([10]; 125 g ai/ha, Preemergence, visual injury rating after approximately 10 d, read-out: Kochia plant response rating (0 to 100 scale, 0 is no effect, 100 is complete control)): 60% | pest or weed control at 500 g/ha ([10]; 500 g ai/ha, preemergence, visual injury rating about 10 d after treatment, 0 to 100 scale (0 no effect, 100 complete control), read-out: Kochia plant response rating): 60% | pest or weed control at 125 g/ha [11]: 0% | pest or weed control at 125 g/ha [12]: 0% | plant injury at 125 g/ha [13]: 0% | pest or weed control at 125 g/ha [14]: 90% | pest or weed control at 125 g/ha [15]: 0% | pest or weed control at 125 g/ha [16]: 90% | pest or weed control at 125 g/ha [17]: 20% | pest or weed control at 125 g/ha [18]: 0% | Corn plant response rating (crop injury, 0 = no effect, 100 = complete kill) at 125 g/ha [19]: 0% | pest or weed control at 125 g/ha [20]: 30%

Source: patent publication US12077503B2, “Substituted cyclic amides and their use as herbicides” (FMC CORPORATION, priority 2015, dated 2024)
